The results in this text go back to patent US20260356817A1, “AMINOPYRIMIDINE AND AMINOTRIAZINE DERIVATIVES AS MYC PROTEIN MODULATORS” (Sanford Burnham Prebys Medical Discovery Institute, priority 2022, published 2026).

This assay concerns Myc. Kind of assay: Myc inhibition assay: Myc expression per cell by anti-Myc immunofluorescence, high-content imaging. The class given is cell-based, human (patient-derived medulloblastoma xenograft cells). Conditions: medulloblastoma PDX cells, 4 h. The method in brief:
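Cells from Myc-driven medulloblastoma patient-derived orthotopic xenografts, propagated only in NSG mouse cerebellum, were dissociated and plated in serum-free medium. After overnight recovery, compounds were applied for 4 hours; cells were then fixed, stained for Myc and DAPI, and per-cell Myc quantified by high-content imaging to derive IC50.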
On the technique in general: In xenograft studies the graft and the host belong to different species.

Setting [1] is: Table 1, read-out: IC50 (Myc inhibition).
Setting [2] is: Table 2, read-out: MYC Inhibition IC50.

Where two headings read alike, the source gives them in different places.

Broadly, the IC50 is the midpoint of a concentration-inhibition curve. In the case of `c1cc(Nc2nccc(-c3ccc4[nH]cnc4c3)n2)cc(N2CCCCC2)c1` [Compound 65, 4-(1H-benzo[d]imidazol-5-yl)-N-(3-(piperidin-1-yl)phenyl)pyrimidin-2-amine], the IC50 runs as follows: under setting [1], 200 to 1000 nM; under setting [2], 200 to 1000 nM.

With `COc1cc(-c2ccnc(Nc3ccncc3)n2)ccn1` [Compound 197, 4-(2-methoxypyridin-4-yl)-N-(pyridin-4-yl)pyrimidin-2-amine], the IC50 reads like this: under setting [1], 1000 to 10000 nM; under setting [2], 1000 to 10000 nM.

With `c1cnc(-n2cc(Nc3nccc(-c4ccc5[nH]cnc5c4)n3)cn2)nc1` [Compound 20, 4-(1H-benzo[d]imidazol-5-yl)-N-(1-(pyrimidin-2-yl)-1H-pyrazol-4-yl)pyrimidin-2-amine], the IC50 lay in the range of 200 to 1000 nM under setting [1] and 200 to 1000 nM under setting [2].

As to `FC(F)(F)c1cccc(Nc2nccc(-c3ccc4[nH]nnc4c3)n2)c1` [Compound 139, 4-(1H-Benzo[d][1,2,3]triazol-5-yl)-N-(3-(trifluoromethyl)phenyl)pyrimidin-2-amine], the IC50 by setting is: under setting [1], 200 to 1000 nM; under setting [2], 200 to 1000 nM.

For `CCN(CC)C(=O)c1cccc(Nc2nccc(-c3ccc4[nH]cnc4c3)n2)c1` [Compound 19, 3-((4-(1H-benzo[d]imidazol-5-yl)pyrimidin-2-yl)amino)-N,N-diethylbenzamide], the IC50 is, setting by setting: under setting [1], 200 to 1000 nM; under setting [2], 200 to 1000 nM.

For `Cc1cc(Nc2nccc(-c3cnc4nc[nH]c4c3)n2)ccc1F` [Compound 135, N-(4-fluoro-3-methylphenyl)-4-(1H-imidazo[4,5-b]pyridin-6-yl)pyrimidin-2-amine], the IC50 was less than 200 nM under setting [1] and less than 200 nM under setting [2].

As to `Fc1cnc(Nc2cccc(C(F)(F)F)n2)cc1-c1ccc2nc[nH]c2c1` [Compound 279, 4-(1H-benzo[d]imidazol-6-yl)-5-fluoro-N-(6-(trifluoromethyl)pyridin-2-yl)pyridin-2-amine], the IC50 is less than 200 nM under setting [1] and less than 200 nM under setting [2].

Consider `COc1cc(-c2ncnc(Nc3ccccc3)n2)ccn1` [Compound 240, 4-(2-methoxypyridin-4-yl)-N-phenyl-1,3,5-triazin-2-amine], for which the IC50 reads like this: under setting [1], 1000 to 10000 nM; under setting [2], 1000 to 10000 nM.

With `COc1cccc(-c2ccnc(Nc3ccccc3)c2)c1` [Compound 246, 4-(3-Methoxyphenyl)-N-phenylpyridin-2-amine], the IC50 runs as follows: under setting [1], 10000 to 100000 nM; under setting [2], 10000 to 100000 nM.

As for `CC(=O)c1cccc(Nc2nccc(-c3ccc4[nH]cnc4c3)n2)c1` [Compound 256, 1-(3-((4-(1H-benzo[d]imidazol-5-yl)pyrimidin-2-yl)amino)phenyl)ethan-1-one], the IC50 was less than 200 nM under setting [1] and less than 200 nM under setting [2].

With `O=S(=O)(Nc1ccccc1F)c1cccc(Nc2nccc(-c3ccc4[nH]cnc4c3)n2)c1` [Compound 12, 3-((4-(1H-benzo[d]imidazol-5-yl)pyrimidin-2-yl)amino)-N-(2-fluorophenyl)benzenesulfonamide], the IC50 lay within 200 to 1000 nM under setting [1] and 200 to 1000 nM under setting [2].

For the molecule `Oc1cc(-c2ccnc(Nc3cncc(C(F)(F)F)c3)n2)ccn1` [Compound 154, 4-(2-((5-(trifluoromethyl)pyridin-3-yl)amino)pyrimidin-4-yl)pyridin-2-ol], the IC50 runs as follows: under setting [1], 200 to 1000 nM; under setting [2], 200 to 1000 nM.

For the molecule `FC(F)(F)c1cccc(Nc2nccc(-c3ccc4cn[nH]c4c3)n2)c1` [Compound 164, 4-(1H-indazol-6-yl)-N-(3-(trifluoromethyl)phenyl)pyrimidin-2-amine], the IC50 lay within 1000 to 10000 nM under setting [1] and 1000 to 10000 nM under setting [2].

`Cc1cccc(C)c1-c1cccc(Nc2nccc(-c3ccc4[nH]cnc4c3)n2)c1` [Compound 3, 4-(1H-benzo[d]imidazol-5-yl)-N-(2′,6′-dimethyl-[1,1′-biphenyl]-3-yl)pyrimidin-2-amine]: the IC50 was in the range of 1000 to 10000 nM under setting [1] and 1000 to 10000 nM under setting [2].
